Experiments:
CYP17 = target: T1, CYP17 (Rattus norvegicus, UniProt P11715); experiment: Inhibition of CYP17 (pooled rat testicular microsomes); format: biochemical
T1 construct: from tissue; host or cells: pooled rat testicular microsomes
T1 sequence (P11715 1-507): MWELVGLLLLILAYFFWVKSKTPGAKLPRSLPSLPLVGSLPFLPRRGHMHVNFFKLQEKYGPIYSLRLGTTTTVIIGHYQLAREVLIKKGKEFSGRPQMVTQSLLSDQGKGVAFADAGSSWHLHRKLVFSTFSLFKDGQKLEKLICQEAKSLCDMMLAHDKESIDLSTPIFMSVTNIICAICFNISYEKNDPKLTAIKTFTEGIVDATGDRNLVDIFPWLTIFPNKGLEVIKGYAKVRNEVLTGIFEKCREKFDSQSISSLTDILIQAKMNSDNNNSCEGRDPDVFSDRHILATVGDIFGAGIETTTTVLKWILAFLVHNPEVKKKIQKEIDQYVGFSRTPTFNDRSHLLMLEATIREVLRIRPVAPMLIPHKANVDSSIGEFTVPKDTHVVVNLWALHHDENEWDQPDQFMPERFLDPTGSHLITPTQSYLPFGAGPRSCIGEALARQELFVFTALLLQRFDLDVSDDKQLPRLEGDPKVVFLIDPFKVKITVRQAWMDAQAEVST
Description: CYP17 activity was assayed according to the following procedure. […] The individual test compound and isozyme inhibitor solutions were then diluted 20-fold with deionized water (50:950 v/v) to concentrations of 135, 27, 4.5, 0.9, 0.15, 0.03 and 0.005 μM. The percent of organic solvent attributable to the test compound or inhibitor mixture in the final reaction mixture is 1%. Pooled rat testicular microsome suspension (20 mg/mL) was diluted with phosphate buffer to obtain a 1.25 mg/mL suspension. A solution of NADPH was prepared in phosphate buffer at a concentration of 2.5×. A stock solution of the substrate was prepared in DMSO:MeCN (50:50 v/v), mixed, and diluted in phosphate buffer to obtain a single solution containing the substrate at 5 μM. The percent of organic solvent attributable to substrate mixture in the final reaction mixture is 1%. Substrate solution and microsome suspension were combined in a 1:1 volume ratio, mixed, and distributed to reaction wells of a PCR plate. Individual test compound or the inhibitor solution at each concentration was added to the wells and mixed by repetitive aspirate/dispense cycles. For active controls, blank test compound diluent was added in place of test compound solution. Reaction mixtures were allowed to equilibrate at 37° C. for approximately two minutes before adding NADPH solution to initiate reaction, followed by pipette mixing of reaction mixture.

CYP3A4 = CYP3A4 (Homo sapiens, UniProt P08684); experiment: Inhibition of liver cytochrome P450 enzymes (pooled human liver microsomes), CYP3A4
CYP2C9 = CYP2C9 (Homo sapiens, UniProt P11712); experiment: Inhibition of liver cytochrome P450 enzymes (pooled human liver microsomes), CYP2C9
CYP2C19 = CYP2C19 (Homo sapiens, UniProt P33261); experiment: Inhibition of liver cytochrome P450 enzymes (pooled human liver microsomes), CYP2C19
CYP2C19, sequence (P33261 whole entry): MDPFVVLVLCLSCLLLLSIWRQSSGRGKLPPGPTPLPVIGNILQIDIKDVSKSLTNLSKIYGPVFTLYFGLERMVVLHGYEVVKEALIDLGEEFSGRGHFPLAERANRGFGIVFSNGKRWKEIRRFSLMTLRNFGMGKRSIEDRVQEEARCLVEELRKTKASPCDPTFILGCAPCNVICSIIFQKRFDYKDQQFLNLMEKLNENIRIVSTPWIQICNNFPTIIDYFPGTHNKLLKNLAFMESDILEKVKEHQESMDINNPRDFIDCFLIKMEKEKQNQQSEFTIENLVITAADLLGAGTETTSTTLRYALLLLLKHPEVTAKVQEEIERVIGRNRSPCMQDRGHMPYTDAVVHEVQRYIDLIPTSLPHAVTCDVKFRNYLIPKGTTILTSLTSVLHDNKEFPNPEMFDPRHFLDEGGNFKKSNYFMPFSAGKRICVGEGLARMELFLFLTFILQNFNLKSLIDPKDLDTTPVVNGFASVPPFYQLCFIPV

CYP3A4, sequence (P08684 whole entry): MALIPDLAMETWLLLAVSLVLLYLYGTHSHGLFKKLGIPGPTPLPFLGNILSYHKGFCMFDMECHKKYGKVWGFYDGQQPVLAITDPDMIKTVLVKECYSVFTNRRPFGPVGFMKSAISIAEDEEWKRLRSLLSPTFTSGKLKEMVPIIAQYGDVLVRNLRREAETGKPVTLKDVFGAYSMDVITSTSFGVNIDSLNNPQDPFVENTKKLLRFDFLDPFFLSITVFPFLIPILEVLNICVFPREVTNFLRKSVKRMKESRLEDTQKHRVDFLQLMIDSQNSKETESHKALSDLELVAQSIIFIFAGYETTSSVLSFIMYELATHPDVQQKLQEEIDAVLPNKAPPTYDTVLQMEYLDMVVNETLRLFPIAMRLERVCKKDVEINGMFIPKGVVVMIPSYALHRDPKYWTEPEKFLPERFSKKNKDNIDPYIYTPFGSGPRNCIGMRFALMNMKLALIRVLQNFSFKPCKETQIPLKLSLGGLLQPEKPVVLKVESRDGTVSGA
CYP2C9, sequence (P11712 whole entry): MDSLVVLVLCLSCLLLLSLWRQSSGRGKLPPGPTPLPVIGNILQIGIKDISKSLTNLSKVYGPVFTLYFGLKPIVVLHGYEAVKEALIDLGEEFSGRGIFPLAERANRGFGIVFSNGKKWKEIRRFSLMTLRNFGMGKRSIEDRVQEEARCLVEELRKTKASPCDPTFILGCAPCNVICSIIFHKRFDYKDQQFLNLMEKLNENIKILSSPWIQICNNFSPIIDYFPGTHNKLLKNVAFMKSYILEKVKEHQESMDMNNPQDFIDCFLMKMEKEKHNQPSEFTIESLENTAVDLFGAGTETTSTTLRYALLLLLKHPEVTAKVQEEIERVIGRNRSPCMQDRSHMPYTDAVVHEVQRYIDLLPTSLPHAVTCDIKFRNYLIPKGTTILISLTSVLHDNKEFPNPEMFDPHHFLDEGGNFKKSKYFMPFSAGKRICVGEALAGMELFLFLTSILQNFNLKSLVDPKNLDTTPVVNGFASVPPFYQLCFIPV

| SMILES | IC50 (CYP17) | IC50 (CYP3A4) | IC50 (CYP2C9) | IC50 (CYP2C19) |
| --- | --- | --- | --- | --- |
| CC(C)C(c1ccc2cc(OCC(F)(F)F)ccc2n1)n1ccnn1 (centres unmarked) [Example 3, 2-(2-Methyl-1-(1H-1,2,3-triazol-1-yl)propyl)-6-(2,2,2-trifluoroethoxy)quinoline] | 0.03 µM | 19 µM | 3.2 µM | 5 µM |
| CC(C)C(c1ccc2cc(-c3ccc(F)cc3)ccc2n1)n1ccnn1 (centres unmarked) [Example 4, 6-(4-Fluorophenyl)-2-(2-methyl-1-(1H-1,2,3-triazol-1-yl)propyl)quinoline] | 0.042 µM | 84 µM | 24 µM | 31 µM |
| COc1cc2ccc(C(C(C)C)n3ccnn3)cc2cc1OC (centres unmarked) [Example 1, 1-(1-(6,7-dimethoxynaphthalen-2-yl)-2-methylpropyl)-1H-1,2,3-triazole] | 0.05 µM | 11 µM | 6.5 µM | 8.4 µM |
| CC(=O)N1CCN(c2ccc(OCC3COC(Cn4ccnc4)(c4ccc(Cl)cc4Cl)O3)cc2)CC1 (centres unmarked) [Ketoconazole, ketoconazole, reference compound] | 0.4 µM | – | – | – |
| CC(C)C(c1ccc2cc(OCC(F)(F)F)c(OCC(F)(F)F)cc2c1)n1ccnn1 (centres unmarked) [Example 2, 1-(1-(6,7-bis(2,2,2-trifluoroethoxy)naphthalen-2-yl)-2-methylpropyl)-1H-1,2,3-triazole] | 0.48 µM | > 60 µM | 2.9 µM | 4.4 µM |

From US8669274B2, “Metalloenzyme inhibitor compounds” (Viamet Pharmaceuticals, Inc., priority 2010, dated 2014)
